Results as given in patent publication US10066204B2, “Chemically labile peptide-presenting surfaces for cellular self-assembly” (Wisconsin Alumni Research Foundation, priority 2013, dated 2018).
Like-named read-outs stand apart in the source and are kept apart here.

Assays:
[1] = system: hESC monolayers (H1 hESC line); conditions: for effect of soluble peptide on kinetics of aggregate assembly: 0.1 mM soluble peptide in culture media; for change in hESC colony projected area (indicative of aggregate self-assembly): both 5% COOH and 0.5% COOH SAMs
Method: Gold slides were placed into a 150 mm glass Petri dish, covered with EtOH and sonicated for 2 minutes using an ultrasonic bath (Bransonic 1510, Branson, Danbury, Conn.). Sonicated gold chips were then rinsed with EtOH and blown dry with N2. […] Wells were then filled with 1 mM ethanolic alkanethiolate solution and incubated for approximately 10 minutes at room temperature in a chamber containing a laboratory wipe soaked in ethanol to prevent evaporation during local SAM formation. Alkanethiolate solutions were then aspirated and wells were rinsed with DIUF H2O. Carboxylate groups were then converted to active ester groups by adding a solution of 100 mM NHS and 250 mM EDC (in pH 5.5 DIUF H2O) to wells and incubating for 15 minutes. After an additional rinse with DIUF H2O, 300 μM solutions of peptide(s) in pH 7.4 PBS were added to each well and incubated for 1 hour in a humidity-controlled chamber at room temperature to covalently couple peptides to each array spot. After a final rinse in DIUF H2O, regions surrounding array spots were backfilled with HS—C11-EG3-OH. This was accomplished by submerging the gold substrate and attached elastomeric stencil in an aqueous 0.1 mM HS—C11-EG3-OH solution (pH 2.0), removing the stencil, and incubating for 10 minutes. Following backfilling, the array was rinsed with 0.1 wt % SDS in DIUF H2O, DIUF H2O, and EtOH, and then dried under a stream of N2. Arrays were stored away from light in diH2O at room temperature and used within 24 hours.
Pluripotent stem cells (H1 hESC line) were seeded on arrays at a density of approximately 2×10^5 cells/cm^2 to achieve confluent monolayers within 4 hours.
(§1) Time lapse images were analyzed using edge detection software to track projected area of colonies with respect to initial colony area over time. A t50 of self-assembly was defined as the length of time required for a given patterned cell monolayer to reach 50% of its original 2D projected area, as assessed by automated edge detection. This metric is used throughout this specification to describe differences in the kinetics of aggregate self-assembly between different cell types and in different conditions.

hESC (H1) = conditions: for cell adhesion of the hESC monolayer by adhesion ligand on the array spot: FIG. 2B/2C
Method: Gold slides were placed into a 150 mm glass Petri dish, covered with EtOH and sonicated for ˜1 minute using an ultrasonic bath (Bransonic 1510, Branson, Danbury, Conn.). Sonicated gold chips were then rinsed with EtOH and blown dry with N2. […] For spot shape, elastomeric stencils with arrays in the shape of circles, ovals, and oval cross were placed on a bare gold surface to form an array of wells having these shapes on the gold substrate. Wells were then filled with 1 mM ethanolic alkanethiolate solution and incubated for 10 minutes in a chamber containing a laboratory wipe soaked in ethanol to prevent evaporation during local SAM formation. Alkanethiolate solutions were then aspirated and wells were rinsed with DIUF H2O. Carboxylate groups were then converted to active ester groups by adding a solution of 100 mM NHS and 250 mM EDC in DIUF H2O pH 5.5 to wells and incubated for 10 minutes. After an additional rinse with DIUF H2O, 300 μM solutions of […] (SEQ ID NO: 5; commercially available from GenScript, Piscataway, N.J.) or […] (SEQ ID NO: 6; commercially available from GenScript, Piscataway, N.J.) in PBS and pH 7.4 were added to each well and incubated for 1 hour in a humidity controlled chamber to covalently couple peptides to each array spot. After a final rinse in DIUF H2O, regions surrounding array spots were backfilled with HS—C11-EG3-OH. This was accomplished by submerging the gold substrate and attached elastomeric stencil in an aqueous 0.1 mM HS—C11-EG3-OH solution (pH 2.0), removing the stencil, and incubating for 10 minutes. Following backfilling, the array was rinsed with 0.1 wt % SDS in DIUF H2O, DIUF H2O, and EtOH and then dried under a stream of N2. Arrays were stored in sterile DIUF H2O at 4° C. and used within 24 hours.
Pluripotent stem cells were seeded on arrays at a density of 10^5 cells/cm^2. […] Colonies that spontaneously detached from SAM spots were also harvested. Colonies were analyzed for Oct 3/4 and Nanog expression by immunofluorescence using DAPI to stain nuclei.
The concentration of the integrin adhesion peptides […] (SEQ ID NO: 1) and cyclic RGD (SEQ ID NO: 4) on the array spot was varied between 2% and 10% by the fraction of COOH groups functionalized with peptides present at the spot among background OH functionalities.
After initial attachment of the cells to the glycosaminoglycan binding peptide […]
Specifically, a 1:1 functionalization with cyclic RGD (SEQ ID NO: 4) and […]

hMSC monolayers = system: hMSC monolayers
Method: as §1
hMSCs or hDFs were seeded on arrays at a density of ˜1×10^5 cells/cm^2 to achieve confluent monolayers within 4 hours. Cells were cultured on SAMs in αMEM media containing 10% fetal bovine serum (FBS) for 2 hours after seeding. At this time, SAM arrays were rinsed in basal medium to remove nonspecifically adhered cells and replaced in fresh αMEM+10% FBS.
In this Example, the beginning of self-assembly is characterized by the time point at which an evident decrease in projected area of the cell monolayer first occurs. The completion of self-assembly is considered the time point at which no further decreases in monolayer projected area occur, and is marked by the appearance of a plateau in graphical traces of monolayer projected area (see FIG. 28A).

hESC monolayers [2] = conditions: 5% SAMs, circular spots of 1.2 mm diameter
Method: Polymer stencils containing arrays of wells were created using soft lithography. Master molds containing arrays of 1.2 mm, 1.8 mm, and 2.4 mm diameter circular posts or oval-shaped or quatrefoil-shaped posts were fabricated from SU-8 (Microchem, Newton, Mass.) spin-coated silicon wafers using conventional photolithography techniques. Polydimethylsiloxane (PDMS) (Sylgard 184, Dow Corning, Midland, Mich.) was prepared by mixing a 10:1 ratio of base:curing agent (w/w) followed by degassing for approximately 45 minutes. The degassed mixture was cast over the mold and cured for 6 hours at 80° C. Following curing, PDMS stencils were removed from molds and cleaned in hexane using overnight Soxhlet extraction.

hESC monolayers [3] = conditions: 5% SAMs
Method: Colonies were analyzed for Oct4 and Nanog expression by immunofluorescence using DAPI to stain nuclei.
Self-assembled EBs formed from largely pluripotent 2D hESC populations. hESC monolayers cultured on array spots were stained for pluripotency markers Oct4 and Nanog, as well as DAPI to identify cell nuclei. […] Quantification of positive staining for Oct4 and Nanog, relative to number of cells as quantified by DAPI staining, is shown in FIG. 25B. […] Nanog was expressed by 89% and 93% of hESCs in monolayers at 4 hours and 24 hours, respectively.

hESCs (H1 line) = conditions: EBs from 5% SAMs, 24 hours post-assembly

For cyclo(RADFDK) [reference compound], the “effect of soluble peptide on kinetics of aggregate assembly” value ([1]; hESC on 5% cyclo(RGDFDC) SAMs) was “no evident effect”.

For GWGGRGESP [reference compound], the “cell adhesion of the hESC monolayer by adhesion ligand on the array spot” value (shortened to “cell adhesion of the hESC monolayer”) (hESC (H1)) was “No significant differences”.

For GWGGRGDSP, the “cell adhesion of the hESC monolayer” value (hESC (H1)) was “best cell adhesion”.

With CGKKQRFRHRNRKG the “cell adhesion of the hESC monolayer” value (hESC (H1)) was “significantly less cell attachment” and the “time until cells detached after initial attachment” value (hESC (H1); array spots presenting the peptide) was ≤ 12 h.

With cyclo(RGDFDC) the “hESC cell adhesion as a function of adhesion ligand density” value (hESC (H1); 2% COOH fraction compared to 5% COOH, 4 to 48 hours in culture) was “significantly lower cell adhesion”, the “hESC cell adhesion as a function of adhesion ligand density” value (hESC (H1); 10% COOH fraction compared to 5% COOH) was “did not lead to an improved attachment” and the “cell adhesion of the hESC monolayer” value (hESC (H1)) was “best cell adhesion”. For the same substance, the “effect of soluble peptide on kinetics of aggregate assembly” value ([1]; hESC on 5% cyclo(RGDFDC) SAMs) was “most rapid aggregate assembly”, the “time of forming three-dimensional cellular aggregates floating in suspension” value ([1]; 5% COOH SAMs) was 72 to 96 h and the “effect of soluble peptide on kinetics of aggregate assembly versus control” value ([1]; […] soluble peptide in culture media, hESC on 5% cyclo(RGDFDC) SAMs) was “faster aggregate assembly”. The “change in hESC colony projected area (indicative of aggregate self-assembly)” value [1] was “evident decreases”, the t50 of self-assembly ([1]; hESC, 0.01% peptide SAMs) was “approximately 14 hours” and the t50 of self-assembly ([1]; hESC, 0.5% COOH SAMs) was “approximately 22 hours”. For the same substance, the “beginning of the self-assembly process after initial seeding” value ([1]; hESC, 5% COOH SAMs) was 40 to 48 h, the “completion of the self-assembly process after initial seeding” value ([1]; hESC, 5% SAMs) was ≤ 72 h and the t50 of self-assembly ([1]; hESC, 5% peptide SAMs) was “approximately 45 hours”. The “beginning of self-assembly after initial seeding” value (hMSC monolayers) was ≤ 24 h, the “completion of self-assembly after initial seeding” value (hMSC monolayers) was ≤ 36 h and the “t50 of self-assembly of hMSCs” value (hMSC monolayers) was “approximately 30 hours”. For the same substance, the “time to form self-assembled EBs” value (hESC monolayers [2]) was ≤ 72 h, the “hESCs in monolayers expressing Nanog” value (hESC monolayers [3]; 4 hours after seeding) was 89% and the “hESCs in monolayers expressing Oct4” value (hESC monolayers [3]; 4 hours after seeding) was “greater than 97%”. For the same substance, the “hESCs in monolayers expressing Nanog” value (hESC monolayers [3]; 24 hours after seeding) was 93%, the “hESCs in monolayers expressing Oct4” value (hESC monolayers [3]; 24 hours after seeding) was 93% and the “Nanog+ cells dissociated from EBs” value (hESCs (H1 line)) was “approximately 91%”. The “Oct4+ cells dissociated from EBs” value (hESCs (H1 line)) was “approximately 99%”.

In the case of KRTGQYKL, the “cell adhesion of the hESC monolayer” value (hESC (H1)) is reported as “no significant adhesion”.

For cyclo(RGDFDK) [reference compound], the “cellular self-assembly behavior of hESC monolayers” value ([1]; 5% COOH SAMs) was “no cellular self-assembly behavior”, the “change in hESC colony projected area (indicative of aggregate self-assembly)” value [1] was “no such decreases” and the “detachment of hESC monolayers” value ([1]; over 96 hours) was “no observable detachment”.
